US20220257698A1, “ANGIOTENSIN TYPE 2 (AT2) RECEPTOR AGONISTS FOR USE IN THE TREATMENT OF CANCER” (LANTHIOPEP B.V., priority 2019, published 2022)

Tested on: head & neck carcinoma PDX model HN10309
Experiment: KcAng(1-7) on growth of head & neck carcinoma PDX HN10309 in mice
Format: in vivo, NMRI nu/nu mice (human PDX)
Experimental: In vivo studies were conducted at EPO GmbH Berlin. Large studies (FIG. 1A, 2, 3, 4, 5) comprised 3 groups of 10 mice/group and 5 animals as reserve, as outlined in Table 1. Smaller studies (FIG. 1B, 1C, 1D) comprised 2 groups of mice of 3 mice per group. The animals were allocated to the various treatment groups (e.g. 0.2 μg/kg and 30 μg/kg) with a maximum of 10 animals per group. […] The groups received subcutaneous (s.c.) drug injection (for max. 28 days) as outlined in the Table 1.
NMRI nu/nu mice were used in this study. The animals were female at age of 6 to 8 weeks. The respective PDX tumors were inoculated subcutaneously (s.c.), and the tumors were grown to achieve palpable tumor sizes before start of the respective treatments. The PDX included breast (MaCa4151), colon (Co9689A), head & neck (HN10309), lung (Lu7433) and ovarian (OvCa13329) cancer (Table 2).
Treatment with KcAng(1-7) was started with palpable tumors after the randomization of animals regarding tumor volume. KcAng(1-7) was applied s.c. by daily injections at […] or 30 μg/kg dose for a maximum of 28 days (or earlier as defined by the humane end point for the study).
KcAng(1-7) was prepared as follows: The compounds was suspended in sterile PBS resulting in a clear solution. The remains of this formulation were stored at 4° C.
Tumor growth stimulatory or inhibitory activity of the KcAng(1-7) was evaluated by determination of tumor volumes (TV). During the study, tumor volumes and body weight were measured twice a week, and the ratio of the mean tumor volumes between the compound-treated group and the vehicle-treated group (T/C) was calculated.
Tumor volume=(tumor width)×(tumor width)×(tumor length)+2
T/C=T÷C • T: Mean estimated tumor volume of the compound-treated group • C: Mean estimated tumor volume of the vehicle-treated group

[1] = Gr. B 0.2 μg/kg/d s.c., Day 35 (Meas. 1)
[2] = Gr. B 0.2 μg/kg/d s.c., Day 38 (Meas. 2)
[3] = Gr. B 0.2 μg/kg/d s.c., Day 41 (Meas. 3)
[4] = Gr. B 0.2 μg/kg/d s.c., Day 45 (Meas. 4)
[5] = Gr. B 0.2 μg/kg/d s.c., Day 49 (Meas. 5)
[6] = Gr. B 0.2 μg/kg/d s.c., Day 52 (Meas. 6)
[7] = Gr. B 0.2 μg/kg/d s.c., Day 55 (Meas. 7)
[8] = Gr. B 0.2 μg/kg/d s.c., Day 58 (Meas. 8)
[9] = Gr. B 0.2 μg/kg/d s.c., Day 63 (Meas. 9)
[10] = Gr. C 30 μg/kg/d s.c., Day 35 (Meas. 1)
[11] = Gr. C 30 μg/kg/d s.c., Day 38 (Meas. 2)
[12] = Gr. C 30 μg/kg/d s.c., Day 41 (Meas. 3)
[13] = Gr. C 30 μg/kg/d s.c., Day 45 (Meas. 4)
[14] = Gr. C 30 μg/kg/d s.c., Day 49 (Meas. 5)
[15] = Gr. C 30 μg/kg/d s.c., Day 52 (Meas. 6)
[16] = Gr. C 30 μg/kg/d s.c., Day 55 (Meas. 7)
[17] = Gr. C 30 μg/kg/d s.c., Day 58 (Meas. 8)
[18] = Gr. C 30 μg/kg/d s.c., Day 63 (Meas. 9)

Substance: Lys-Asp-Arg-Val-Abu/Ala-Ile-His-Abu/Ala (KDRVAIHA; not fully specified; cyclic thioether (Abu/Ala bridge); VARIANT (5)..(5) /replace=“Abu”; VARIANT (8)..(8) /replace=“Abu”; SITE (1)..(8) /note=“Variant residues given in the sequence have no preference with respect to those in the annotations for variant positions”) [KcAng(1-7)]
- optT/C (30 μg/kg, day 14 of the treatment): 71%
- effect on tumor volume (0.2 and 30 μg/kg, 28 days): did not result in a reduction or increase in tumor volume
- RTV Mean [1]: 1
- RTV Median [1]: 1
- T/C [1]: 100.1%
- Tumor Vol. Mean [1]: 0.083 cm^3
- Tumor Vol. Median [1]: 0.064 cm^3
- RTV Mean [2]: 1.6
- RTV Median [2]: 1.7
- T/C [2]: 107.9%
- Tumor Vol. Mean [2]: 0.128 cm^3
- Tumor Vol. Median [2]: 0.085 cm^3
- RTV Mean [3]: 2.1
- RTV Median [3]: 2.1
- T/C [3]: 100.6%
- Tumor Vol. Mean [3]: 0.164 cm^3
- Tumor Vol. Median [3]: 0.14 cm^3
- RTV Mean [4]: 2.6
- RTV Median [4]: 2.5
- T/C [4]: 116.7%
- Tumor Vol. Mean [4]: 0.217 cm^3
- Tumor Vol. Median [4]: 0.158 cm^3
- RTV Mean [5]: 3.3
- RTV Median [5]: 3.2
- T/C [5]: 104.4%
- Tumor Vol. Mean [5]: 0.275 cm^3
- Tumor Vol. Median [5]: 0.209 cm^3
- RTV Mean [6]: 4.4
- RTV Median [6]: 4
- T/C [6]: 126.7%
- Tumor Vol. Mean [6]: 0.367 cm^3
- Tumor Vol. Median [6]: 0.303 cm^3
- RTV Mean [7]: 5.4
- RTV Median [7]: 4.8
- T/C [7]: 126.5%
- Tumor Vol. Mean [7]: 0.443 cm^3
- Tumor Vol. Median [7]: 0.366 cm^3
- RTV Mean [8]: 5.8
- RTV Median [8]: 4.9
- T/C [8]: 115.2%
- Tumor Vol. Mean [8]: 0.473 cm^3
- Tumor Vol. Median [8]: 0.437 cm^3
- RTV Mean [9]: 8.9
- RTV Median [9]: 7.3
- T/C [9]: 120.4%
- Tumor Vol. Mean [9]: 0.677 cm^3
- Tumor Vol. Median [9]: 0.64 cm^3
- RTV Mean [10]: 1
- RTV Median [10]: 1
- T/C [10]: 99.5%
- Tumor Vol. Mean [10]: 0.083 cm^3
- Tumor Vol. Median [10]: 0.077 cm^3
- RTV Mean [11]: 1.3
- RTV Median [11]: 1.3
- T/C [11]: 83.5%
- Tumor Vol. Mean [11]: 0.099 cm^3
- Tumor Vol. Median [11]: 0.092 cm^3
- RTV Mean [12]: 1.6
- RTV Median [12]: 1.5
- T/C [12]: 74.6%
- Tumor Vol. Mean [12]: 0.122 cm^3
- Tumor Vol. Median [12]: 0.117 cm^3
- RTV Mean [13]: 1.8
- RTV Median [13]: 1.7
- T/C [13]: 75%
- Tumor Vol. Mean [13]: 0.139 cm^3
- Tumor Vol. Median [13]: 0.135 cm^3
- RTV Mean [14]: 2.2
- RTV Median [14]: 2.2
- T/C [14]: 71.3%
- Tumor Vol. Mean [14]: 0.188 cm^3
- Tumor Vol. Median [14]: 0.187 cm^3
- RTV Mean [15]: 2.8
- RTV Median [15]: 2.9
- T/C [15]: 89.8%
- Tumor Vol. Mean [15]: 0.26 cm^3
- Tumor Vol. Median [15]: 0.236 cm^3
- RTV Mean [16]: 3.5
- RTV Median [16]: 3.5
- T/C [16]: 92.1%
- Tumor Vol. Mean [16]: 0.323 cm^3
- Tumor Vol. Median [16]: 0.283 cm^3
- RTV Mean [17]: 3.9
- RTV Median [17]: 4
- T/C [17]: 89.3%
- Tumor Vol. Mean [17]: 0.367 cm^3
- Tumor Vol. Median [17]: 0.303 cm^3
- RTV Mean [18]: 5.6
- RTV Median [18]: 5.8
- T/C [18]: 96.3%
- Tumor Vol. Mean [18]: 0.541 cm^3
- Tumor Vol. Median [18]: 0.505 cm^3
